What was measured:
[1] = tested on: barnyard grass; experiment: Test Example 5: herbicidal effect by foliage application, plastic box (Table 20, symbol H); type: in vivo, barnyard grass (Echinochloa crus-galli); settings: foliage application, 320 g/ha, 3 weeks after application
Outline: (§1)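 Foliar spray test: emulsion formulation diluted in water to a set application rate, sprayed onto 14-day-old plants raised in diluvial soil at 25° C to 30° C under glass. Both herbicidal effect and crop effect rated visually three weeks later.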

[2] = tested on: windgrass; experiment: Test Example 4: herbicidal effect by soil treatment (Table 19, symbol L); type: in vivo, windgrass (Apera spica-venti); settings: 320 g/ha
Outline: (§2)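 Herbicidal effect was rated 3 weeks after treatment, using the scoring criteria of an earlier test. The compound, formulated as an emulsion and diluted in water to a set herbicide amount, had been sprayed uniformly on soil over freshly sown seeds. Growth took place in a greenhouse at 25° C. to 30° C.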

[3] = tested on: southern crabgrass; experiment: Test Example 4: herbicidal effect by soil treatment (Table 19, symbol F); type: in vivo, southern crabgrass (Digitaria ciliaris); settings: 320 g/ha
Outline: as §2

[4] = tested on: lambsquarters; experiment: Test Example 4: herbicidal effect by soil treatment (Table 19, symbol O); type: in vivo, lambsquarters (Chenopodium album); settings: 320 g/ha
Outline: as §2

[5] = tested on: green foxtail; experiment: Test Example 4: herbicidal effect by soil treatment (Table 19, symbol G); type: in vivo, green foxtail (Setaria viridis); settings: 320 g/ha
Outline: as §2

[6] = tested on: persian speedwell; experiment: Test Example 4: herbicidal effect by soil treatment (Table 19, symbol R); type: in vivo, Persian speedwell (Veronica persica); settings: 320 g/ha
Outline: as §2

[7] = tested on: wild oat; experiment: Test Example 4: herbicidal effect by soil treatment (Table 19, symbol I); type: in vivo, wild oat (Avena fatua); settings: 320 g/ha
Outline: as §2

[8] = tested on: southern crabgrass; experiment: Test Example 5: herbicidal effect by foliage application, plastic box (Table 20, symbol F); type: in vivo, southern crabgrass (Digitaria ciliaris); settings: foliage application, 320 g/ha, 3 weeks after application
Outline: as §1

[9] = tested on: oval-leafed pondweed; experiment: Test Example 1: herbicidal activity, application before weed generation under submerged conditions (Table 16, symbol C); type: in vivo, oval-leafed pondweed (Monochoria vaginalis); settings: 320 g/ha applied herbicide
Outline: (§3)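 Emulsion formulation, water-diluted to set dose, was put onto the flooded surface (4 cm depth, alluvial soil) the same day weeds were sown and 2.5-leaf rice transplanted. After 3 weeks at 25-30 °C under glass, each species was rated 0 (≤5% kill) to 5 (≥90% kill).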

[10] = tested on: persian speedwell; experiment: Test Example 5: herbicidal effect by foliage application, plastic box (Table 20, symbol R); type: in vivo, Persian speedwell (Veronica persica); settings: foliage application, 320 g/ha, 3 weeks after application
Outline: as §1

[11] = tested on: rice flat sedge; experiment: Test Example 3: herbicidal effect by foliage application, Wagner pot (Table 18, symbol E); type: in vivo, rice flat sedge (Cyperus iria); settings: 320 g/ha
Outline: (§4)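 Plants were sown in alluvial soil held under 0.1–0.5 cm standing water and grown 14 days in a greenhouse at 25–30 °C. An emulsifiable formulation, water-diluted to the set dose, was then sprayed onto the foliage, and effects were scored three weeks later using previously defined criteria.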

[12] = tested on: Italian ryegrass; experiment: Test Example 4: herbicidal effect by soil treatment (Table 19, symbol K); type: in vivo, Italian ryegrass (Lolium multiflorum); settings: 320 g/ha
Outline: as §2

[13] = tested on: green foxtail; experiment: Test Example 5: herbicidal effect by foliage application, plastic box (Table 20, symbol G); type: in vivo, green foxtail (Setaria viridis); settings: foliage application, 320 g/ha, 3 weeks after application
Outline: as §1

[14] = tested on: Italian ryegrass; experiment: Test Example 5: herbicidal effect by foliage application, plastic box (Table 20, symbol K); type: in vivo, Italian ryegrass (Lolium multiflorum); settings: foliage application, 320 g/ha, 3 weeks after application
Outline: as §1

[15] = tested on: windgrass; experiment: Test Example 5: herbicidal effect by foliage application, plastic box (Table 20, symbol L); type: in vivo, windgrass (Apera spica-venti); settings: foliage application, 320 g/ha, 3 weeks after application
Outline: as §1

[16] = tested on: Chinese sprangletop; experiment: Test Example 3: herbicidal effect by foliage application, Wagner pot (Table 18, symbol D); type: in vivo, chinese sprangletop (Leptochloa chinensis); settings: 320 g/ha
Outline: as §4

[17] = tested on: wild oat; experiment: Test Example 5: herbicidal effect by foliage application, plastic box (Table 20, symbol I); type: in vivo, wild oat (Avena fatua); settings: foliage application, 320 g/ha, 3 weeks after application
Outline: as §1

[18] = tested on: velvetleaf; experiment: Test Example 4: herbicidal effect by soil treatment (Table 19, symbol M); type: in vivo, velvetleaf (Abutilon theophrasti); settings: 320 g/ha
Outline: as §2

[19] = tested on: lambsquarters; experiment: Test Example 5: herbicidal effect by foliage application, plastic box (Table 20, symbol O); type: in vivo, lambsquarters (Chenopodium album); settings: foliage application, 320 g/ha, 3 weeks after application
Outline: as §1

[20] = tested on: chickweed; experiment: Test Example 4: herbicidal effect by soil treatment (Table 19, symbol P); type: in vivo, common chickweed (Stellaria media); settings: 320 g/ha
Outline: as §2

[21] = tested on: velvetleaf; experiment: Test Example 5: herbicidal effect by foliage application, plastic box (Table 20, symbol M); type: in vivo, velvetleaf (Abutilon theophrasti); settings: foliage application, 320 g/ha, 3 weeks after application
Outline: as §1

[22] = tested on: barnyard grass; experiment: Test Example 3: herbicidal effect by foliage application, Wagner pot (Table 18, symbol H); type: in vivo, barnyard grass (Echinochloa crus-galli); settings: 320 g/ha
Outline: as §4

[23] = tested on: blackgrass; experiment: Test Example 5: herbicidal effect by foliage application, plastic box (Table 20, symbol J); type: in vivo, blackgrass (Alopecurus myosuroides); settings: foliage application, 320 g/ha, 3 weeks after application
Outline: as §1

[24] = tested on: redroot pigweed; experiment: Test Example 4: herbicidal effect by soil treatment (Table 19, symbol N); type: in vivo, redroot pigweed (Amaranthus retroflexus); settings: 320 g/ha
Outline: as §2

[25] = tested on: Japanese bulrush; experiment: Test Example 1: herbicidal activity, application before weed generation under submerged conditions (Table 16, symbol B); type: in vivo, Japanese bulrush (Schoenoplectus juncoides); settings: 320 g/ha applied herbicide
Outline: as §3

[26] = tested on: late watergrass; experiment: Test Example 1: herbicidal activity, application before weed generation under submerged conditions (Table 16, symbol A); type: in vivo, late watergrass (Echinochloa oryzicola); settings: 320 g/ha applied herbicide
Outline: as §3

[27] = tested on: barnyard grass; experiment: Test Example 4: herbicidal effect by soil treatment (Table 19, symbol H); type: in vivo, barnyard grass (Echinochloa crus-galli); settings: 320 g/ha
Outline: as §2

[28] = tested on: blackgrass; experiment: Test Example 4: herbicidal effect by soil treatment (Table 19, symbol J); type: in vivo, blackgrass (Alopecurus myosuroides); settings: 320 g/ha
Outline: as §2

CCOC(=O)Oc1c(C)nn(C)c(=O)c1-c1c(-c2ccc(F)cc2)sc2ccc(F)cc12 [2-004]
effect on barnyard grass (H) [1]: 4 (Herbicidal rate of 70% or more and less than 90%) | herbicidal effect rating, L: windgrass [2]: 0 (Herbicidal rate of 5% or less (almost no effect)) | herbicidal effect rating, F: southern crabgrass [3]: 4 (Herbicidal rate of 70% or more and less than 90%) | herbicidal effect rating, O: lambsquarters [4]: 5 (Herbicidal rate of 90% or more (almost completely withered)) | herbicidal effect rating, G: green foxtail [5]: 5 (Herbicidal rate of 90% or more (almost completely withered)) | herbicidal effect rating, R: persian speedwell [6]: 1 (Herbicidal rate of 5% or more and less than 20%) | herbicidal effect rating, I: wild oat [7]: 0 (Herbicidal rate of 5% or less (almost no effect)) | effect on southern crabgrass (F) [8]: 4 (Herbicidal rate of 70% or more and less than 90%) | Herbicidal effect on C: oval-leafed pondweed (grade 0-5) [9]: 2 (Herbicidal rate of 20% or more and less than 40%) | effect on persian speedwell (R) [10]: 5 (Herbicidal rate of 90% or more (almost completely withered)) | herbicidal effect on E (rice flat sedge), rating 0-5 [11]: 4 (Herbicidal rate of 70% or more and less than 90%) | herbicidal effect rating, K: Italian ryegrass [12]: 5 (Herbicidal rate of 90% or more (almost completely withered)) | effect on green foxtail (G) [13]: 5 (Herbicidal rate of 90% or more (almost completely withered)) | effect on Italian ryegrass (K) [14]: 5 (Herbicidal rate of 90% or more (almost completely withered)) | effect on windgrass (L) [15]: 3 (Herbicidal rate of 40% or more and less than 70%) | herbicidal effect on D (Chinese sprangletop), rating 0-5 [16]: 3 (Herbicidal rate of 40% or more and less than 70%) | effect on wild oat (I) [17]: 0 (Herbicidal rate of 5% or less (almost no effect)) | herbicidal effect rating, M: velvetleaf [18]: 3 (Herbicidal rate of 40% or more and less than 70%) | effect on lambsquarters (O) [19]: 3 (Herbicidal rate of 40% or more and less than 70%) | herbicidal effect rating, P: chickweed [20]: 5 (Herbicidal rate of 90% or more (almost completely withered)) | effect on velvetleaf (M) [21]: 5 (Herbicidal rate of 90% or more (almost completely withered)) | herbicidal effect on H (barnyard grass), rating 0-5 [22]: 5 (Herbicidal rate of 90% or more (almost completely withered)) | effect on blackgrass (J) [23]: 4 (Herbicidal rate of 70% or more and less than 90%) | herbicidal effect rating, N: redroot pigweed [24]: 5 (Herbicidal rate of 90% or more (almost completely withered)) | Herbicidal effect on B: Japanese bulrush (grade 0-5) [25]: 2 (Herbicidal rate of 20% or more and less than 40%) | Herbicidal effect on A: late watergrass (grade 0-5) [26]: 0 (Herbicidal rate of 5% or less (almost no effect)) | herbicidal effect rating, H: barnyard grass [27]: 4 (Herbicidal rate of 70% or more and less than 90%) | herbicidal effect rating, J: blackgrass [28]: 0 (Herbicidal rate of 5% or less (almost no effect))

Cc1nn(C)c(=O)c(-c2c(-c3ccc(F)cc3)sc3ccc(F)cc23)c1OC(=O)c1ccccc1Cl [2-005]
effect on barnyard grass (H) [1]: 4 (Herbicidal rate of 70% or more and less than 90%) | herbicidal effect rating, L: windgrass [2]: 0 (Herbicidal rate of 5% or less (almost no effect)) | herbicidal effect rating, F: southern crabgrass [3]: 5 (Herbicidal rate of 90% or more (almost completely withered)) | herbicidal effect rating, O: lambsquarters [4]: 4 (Herbicidal rate of 70% or more and less than 90%) | herbicidal effect rating, G: green foxtail [5]: 5 (Herbicidal rate of 90% or more (almost completely withered)) | herbicidal effect rating, R: persian speedwell [6]: 3 (Herbicidal rate of 40% or more and less than 70%) | herbicidal effect rating, I: wild oat [7]: 0 (Herbicidal rate of 5% or less (almost no effect)) | effect on southern crabgrass (F) [8]: 5 (Herbicidal rate of 90% or more (almost completely withered)) | Herbicidal effect on C: oval-leafed pondweed (grade 0-5) [9]: 2 (Herbicidal rate of 20% or more and less than 40%) | effect on persian speedwell (R) [10]: 4 (Herbicidal rate of 70% or more and less than 90%) | herbicidal effect on E (rice flat sedge), rating 0-5 [11]: 5 (Herbicidal rate of 90% or more (almost completely withered)) | herbicidal effect rating, K: Italian ryegrass [12]: 4 (Herbicidal rate of 70% or more and less than 90%) | effect on green foxtail (G) [13]: 5 (Herbicidal rate of 90% or more (almost completely withered)) | effect on Italian ryegrass (K) [14]: 4 (Herbicidal rate of 70% or more and less than 90%) | effect on windgrass (L) [15]: 0 (Herbicidal rate of 5% or less (almost no effect)) | herbicidal effect on D (Chinese sprangletop), rating 0-5 [16]: 3 (Herbicidal rate of 40% or more and less than 70%) | effect on wild oat (I) [17]: 0 (Herbicidal rate of 5% or less (almost no effect)) | herbicidal effect rating, M: velvetleaf [18]: 4 (Herbicidal rate of 70% or more and less than 90%) | effect on lambsquarters (O) [19]: 3 (Herbicidal rate of 40% or more and less than 70%) | herbicidal effect rating, P: chickweed [20]: 4 (Herbicidal rate of 70% or more and less than 90%) | effect on velvetleaf (M) [21]: 4 (Herbicidal rate of 70% or more and less than 90%) | herbicidal effect on H (barnyard grass), rating 0-5 [22]: 5 (Herbicidal rate of 90% or more (almost completely withered)) | effect on blackgrass (J) [23]: 3 (Herbicidal rate of 40% or more and less than 70%) | herbicidal effect rating, N: redroot pigweed [24]: 4 (Herbicidal rate of 70% or more and less than 90%) | Herbicidal effect on B: Japanese bulrush (grade 0-5) [25]: 2 (Herbicidal rate of 20% or more and less than 40%) | Herbicidal effect on A: late watergrass (grade 0-5) [26]: 0 (Herbicidal rate of 5% or less (almost no effect)) | herbicidal effect rating, H: barnyard grass [27]: 4 (Herbicidal rate of 70% or more and less than 90%) | herbicidal effect rating, J: blackgrass [28]: 0 (Herbicidal rate of 5% or less (almost no effect))

Reference: patent publication US20230085307A1, “PYRIDAZINONE COMPOUND AND HERBICIDE” (NISSAN CHEMICAL CORPORATION, priority 2019, published 2023)
